Our source for the Activity and Kd values is ChEMBL document CHEMBL3400097, “Effect of arginine methylation on the RNA recognition and cellular uptake of Tat-derived peptides” (Bioorg Med Chem, 2015).

For one data set, the system named is Jurkat. The data set is described as follows: Cytotoxicity against human Jurkat cells assessed as cell viability at 120 uM after 4 hrs by WST-1 assay. In kind it is cell-based.
A further data set concerns Nucleic Acid. Briefly: Binding affinity to HIV TAR RNA by electrophoretic mobility shift assay in presence of Escherichia coli tRNA. The class given is nucleic-acid assay, Human immunodeficiency virus.

On to `CC(=O)N[C@@H](Cc1ccc(O)cc1)C(=O)NCC(=O)N[C@@H](CCCNC(=N)N)C(=O)N[C@@H](CCCCN)C(=O)N[C@@H](CCCCN)C(=O)N[C@@H](CCCNC(=N)N)C(=O)N[C@@H](CCCNC(=N)N)C(=O)N[C@@H](CCC(N)=O)C(=O)N[C@@H](CCCNC(=N)N)C(=O)N[C@@H](CCCNC(=N)N)C(=O)N[C@@H](CCCNC(=N)N)C(N)=O`, for which the Activity result with Jurkat is given as “Non-toxic”. In addition, the Kd in the data set with Nucleic Acid turned out to be 260 nM.

`CNC(=N)NCCC[C@H](NC(=O)CNC(=O)[C@H](Cc1ccc(O)cc1)NC(C)=O)C(=O)N[C@@H](CCCCN)C(=O)N[C@@H](CCCCN)C(=O)N[C@@H](CCCNC(=N)N)C(=O)N[C@@H](CCCNC(=N)N)C(=O)N[C@@H](CCC(N)=O)C(=O)N[C@@H](CCCNC(=N)N)C(=O)N[C@@H](CCCNC(=N)N)C(=O)N[C@@H](CCCNC(=N)N)C(N)=O`: the Activity entry in the data set with Jurkat was “Non-toxic”. Further, the Kd in the data set with Nucleic Acid turned out to be 285 nM.

On to `CNC(=N)NCCC[C@H](NC(=O)[C@H](CCCCN)NC(=O)[C@H](CCCCN)NC(=O)[C@H](CCCNC(=N)N)NC(=O)CNC(=O)[C@H](Cc1ccc(O)cc1)NC(C)=O)C(=O)N[C@@H](CCCNC(=N)N)C(=O)N[C@@H](CCC(N)=O)C(=O)N[C@@H](CCCNC(=N)N)C(=O)N[C@@H](CCCNC(=N)N)C(=O)N[C@@H](CCCNC(=N)N)C(N)=O`, for which the Activity entry in the data set on Jurkat is on record as “Non-toxic”. For the same compound, in the data set with Nucleic Acid, the Kd is 310 nM.

As to `CNC(=N)NCCC[C@H](NC(=O)[C@H](CCCNC(=N)N)NC(=O)[C@H](CCCCN)NC(=O)[C@H](CCCCN)NC(=O)[C@H](CCCNC(=N)N)NC(=O)CNC(=O)[C@H](Cc1ccc(O)cc1)NC(C)=O)C(=O)N[C@@H](CCC(N)=O)C(=O)N[C@@H](CCCNC(=N)N)C(=O)N[C@@H](CCCNC(=N)N)C(=O)N[C@@H](CCCNC(=N)N)C(N)=O`, in the data set with Jurkat, the Activity result is recorded as “Non-toxic”. The dissociation constant Kd with Nucleic Acid came out at 383 nM.

With `CNC(=N)NCCC[C@H](NC(=O)[C@H](CCC(N)=O)NC(=O)[C@H](CCCNC(=N)N)NC(=O)[C@H](CCCNC(=N)N)NC(=O)[C@H](CCCCN)NC(=O)[C@H](CCCCN)NC(=O)[C@H](CCCNC(=N)N)NC(=O)CNC(=O)[C@H](Cc1ccc(O)cc1)NC(C)=O)C(=O)N[C@@H](CCCNC(=N)N)C(=O)N[C@@H](CCCNC(=N)N)C(N)=O`, the Activity result in the data set on Jurkat is “Non-toxic”. Moreover, in the data set with Nucleic Acid, the dissociation constant (Kd) worked out at 380 nM.

As to `CNC(=N)NCCC[C@H](NC(=O)[C@H](CCCNC(=N)N)NC(=O)[C@H](CCC(N)=O)NC(=O)[C@H](CCCNC(=N)N)NC(=O)[C@H](CCCNC(=N)N)NC(=O)[C@H](CCCCN)NC(=O)[C@H](CCCCN)NC(=O)[C@H](CCCNC(=N)N)NC(=O)CNC(=O)[C@H](Cc1ccc(O)cc1)NC(C)=O)C(=O)N[C@@H](CCCNC(=N)N)C(N)=O`, the Activity result in the data set with Jurkat was “Non-toxic”. In addition, the Kd in the data set on Nucleic Acid turned out to be 219 nM.

As to `CNC(=N)NCCC[C@H](NC(=O)[C@H](CCCNC(=N)N)NC(=O)[C@H](CCCNC(=N)N)NC(=O)[C@H](CCC(N)=O)NC(=O)[C@H](CCCNC(=N)N)NC(=O)[C@H](CCCNC(=N)N)NC(=O)[C@H](CCCCN)NC(=O)[C@H](CCCCN)NC(=O)[C@H](CCCNC(=N)N)NC(=O)CNC(=O)[C@H](Cc1ccc(O)cc1)NC(C)=O)C(N)=O`, the Activity result in the data set with Jurkat was “Non-toxic”. The Kd with Nucleic Acid was 197 nM.

For the compound `CC(=O)N[C@@H](Cc1ccc(O)cc1)C(=O)NCC(=O)N[C@@H](CCCNC(=N)N(C)C)C(=O)N[C@@H](CCCCN)C(=O)N[C@@H](CCCCN)C(=O)N[C@@H](CCCNC(=N)N)C(=O)N[C@@H](CCCNC(=N)N)C(=O)N[C@@H](CCC(N)=O)C(=O)N[C@@H](CCCNC(=N)N)C(=O)N[C@@H](CCCNC(=N)N)C(=O)N[C@@H](CCCNC(=N)N)C(N)=O`, the Activity result with Jurkat is recorded as “Non-toxic”. Moreover, the Kd with Nucleic Acid amounted to 279 nM.
